Laboratory results: a compilation of properties of binary mixtures (doi:10.1016/j.molliq.2014.09.055)

Assay: xn = mol fraction of the nth substance listed
Settings: 101 kPa

CC(=O)O + CCOS(=O)(=O)[O-].CC[n+]1ccn(C)c1
speed of sound [m/s]
Settings | 293.15 K | 298.15 K | 303.15 K | 308.15 K | 313.15 K
x1 = 0.0978 | – | – | 1656.4 | 1644.2 | –
x1 = 0.1993 | – | 1651.5 | 1639 | 1626.6 | 1614.3
x1 = 0.308 | 1644.8 | 1632.2 | 1619.5 | 1606.9 | 1594.4
x1 = 0.4031 | 1622.3 | – | 1596.6 | – | –
x1 = 0.4737 | 1603.2 | 1590.2 | 1577.1 | 1564 | 1551.1
x1 = 0.5975 | 1560.5 | 1547.1 | 1533.6 | 1520.1 | –
x1 = 0.701 | 1510.8 | 1497 | 1483.1 | 1469.2 | 1455.5
x1 = 0.8057 | – | – | – | 1394.1 | 1379.8
x1 = 0.8973 | 1339.1 | 1324 | – | 1293.3 | 1278
x1 = 0.9512 | – | 1237.2 | 1221 | 1204.9 | 1188.8
x1 = 1 | 1152.7 | – | 1118.4 | 1101.2 | 1084

CCOS(=O)(=O)[O-].CC[n+]1ccn(C)c1 + CC(=O)O
x2 = 0
Settings | speed of sound [m/s]
293.15 K | 1693.1
298.15 K | 1680.8
303.15 K | 1668.5

CCC(=O)O + CCOS(=O)(=O)[O-].CC[n+]1ccn(C)c1
speed of sound [m/s]
Settings | 293.15 K | 298.15 K | 303.15 K | 308.15 K | 313.15 K
x1 = 0.0818 | – | 1665.8 | 1653.5 | 1641.2 | 1629.1
x1 = 0.1678 | 1659.4 | 1647 | 1634.6 | 1622.2 | 1609.9
x1 = 0.2655 | 1635.9 | – | 1610.7 | – | 1585.6
x1 = 0.3539 | 1611.6 | 1598.8 | 1585.9 | – | 1566
x1 = 0.4224 | 1590.3 | 1577.4 | 1564.4 | 1551.4 | 1538.5
x1 = 0.5516 | 1542.7 | 1529.4 | 1515.9 | 1502.5 | 1489.2
x1 = 0.6556 | 1494.8 | 1481 | 1467 | 1453.1 | 1439.4
x1 = 0.7707 | 1421.7 | 1407.2 | 1392.4 | 1377.8 | 1363.3
x1 = 0.8774 | 1320.2 | 1304.5 | 1288.6 | 1272.8 | –
x1 = 0.9405 | 1240.4 | 1223.4 | 1206.2 | – | 1172.3
x1 = 1 | 1164.7 | 1146 | 1127.1 | 1108.3 | 1089.6

CCOS(=O)(=O)[O-].CC[n+]1ccn(C)c1 + CCC(=O)O
x2 = 0
Settings | speed of sound [m/s]
293.15 K | 1693.1
298.15 K | 1680.8
